Assay results published in patent publication US20240350642A1, “SUSTAINED RELEASE DOSAGE FORMS FOR LOW SOLUBILITY COMPOUNDS AND METHODS FOR PREPARING OF THESE SUSTAINED RELEASE DOSAGE FORMS” (priority 2023, published 2024).
“Also recorded” adds a separate entry of the source.

Key:
Assay type in all cases: physicochemical
[1] = Solubility of Ketoconazole in USP dissolution apparatus before and after adding HP-β-Cyclodextrin (experiment 13)
Procedure: FIGS. 5A and 5B refer to a method to determine the solubility of low soluble API and determination of the solubility enhancing effect of an API: Cyclodextrin complex. Accurately weighted amounts of the low soluble API, higher than its intrinsic solubility in the volume and pH of the aqueous media, is added to a defined volume into a vessel of the standard dissolution test apparatus 1 or 2 as defined in US Pharmacopeia (chapter <711> “Dissolution”) at pH conditions suitable for the API as explained above and at standard temperature conditions at the site of absorption e.g., 37° C. and paddle rotation of 50 rpm, with either water or standard aqueous media at pH 1, pH 2, water or buffer pH 6.8. It is to be assured by visual check that the API is not or not fully dissolved to ensure that the added amount is higher than the intrinsic solubility of the API. The dissolution of the API is checked for between 30 Min. and 3 hours, and the amount dissolved is measured with a suitable assay method like UV or HPLC and plotted against time. After the initial phase at least a 100-time overage of the desired complex forming Cyclodextrin, in a suitable complex forming ratio with the API, is added to the dissolution vessel and the dissolution determination is continued for up to 24 hours until the amount of dissolved API reaches a plateau. […]

[2] = Solubility of the API in aqueous media
Procedure: A different aqueous media may be selected if required for stability reasons of the API; e.g., decompensation of the at pH 6.8 or change of the polymorph of the API, e.g. salt formation of a base under low pH conditions and vis versa base formation of API with a strong acid at higher pH values. Preferably, aqueous conditions are selected to maintain an unchanged API polymorph. The amount dissolved is determined either by measuring the concentration at the defined time points and the amount dissolved is plotted versus time. The amount at each time point is determined by a suitable assay method, e.g., UV for API with sufficient extinction coefficient or HPLC with low extinction coefficient.

[3] = Solubility of Cannabidiol in USP dissolution apparatus before and after adding HP-β-Cyclodextrin (experiment 12)
Procedure: FIGS. 5A and 5B refer to a method to determine the solubility of low soluble API and determination of the solubility enhancing effect of an API: Cyclodextrin complex. Accurately weighted amounts of the low soluble API, higher than its intrinsic solubility in the volume and pH of the aqueous media, is added to a defined volume into a vessel of the standard dissolution test apparatus 1 or 2 as defined in US Pharmacopeia (chapter <711> “Dissolution”) at pH conditions suitable for the API as explained above and at standard temperature conditions at the site of absorption e.g., 37° C. and paddle rotation of 50 rpm, with either water or standard aqueous media at pH 1, pH 2, water or buffer pH 6.8. It is to be assured by visual check that the API is not or not fully dissolved to ensure that the added amount is higher than the intrinsic solubility of the API. The dissolution of the API is checked for between 30 Min. and 3 hours, and the amount dissolved is measured with a suitable assay method like UV or HPLC and plotted against time. […]
An accurately weighted amount of Cannabidiol was dissolved in ethanol resulting in a solution containing 5 mg/ml. […] The amount of dissolved CBD was monitored. […]

solubility of Ketoconazole after overage of HP-β-Cyclodextrin ([1]; 500 ml aqueous media pH 6.8) | solubility of Ketoconazole before Cyclodextrin addition ([1]; 500 ml aqueous media pH 6.8, added as powder) | solubility in aqueous media (words) ([2]; pH 2) | Compound | solubility in aqueous media (words) ([2]; pH 6.8) | solubility of CBD after overage of HP-β-Cyclodextrin ([3]; 500 ml aqueous media pH 2) | solubility of CBD before Cyclodextrin addition ([3]; 500 ml aqueous media pH 2, added as solution in ethanol) | solubility in aqueous media (words) ([2]; any pH or pH not given) | solubility in aqueous media (words) ([2]; any pH or pH not given, listed as Cannabidiol)
significantly increased | visibly insoluble | low soluble | CC(=O)N1CCN(c2ccc(OCC3COC(Cn4ccnc4)(c4ccc(Cl)cc4Cl)O3)cc2)CC1 (centres unmarked) [Ketoconazole] | very insoluble; also recorded: less soluble; also recorded: very low soluble | – | – | – | –
– | – | – | C=C(C)[C@@H]1CCC(C)=C[C@H]1c1c(O)cc(CCCCC)cc1O [CBD, Cannabidiol] | – | significantly increased | almost insoluble | very insoluble | insoluble
